From publication PMC5578999, “Novel quinolone chalcones targeting colchicine-binding pocket kill multidrug-resistant cancer cells by inhibiting tubulin activity and MRP1 function” (Scientific Reports, 2017)

Tests used:
Test in all cases: NCI-60 SRB screen
Type in all cases: cell-based
SR = tested on: SR
Source text: (§1) Supplementary Figure l egend
(§2) 10μ M of CTR-20 was used to examine the drug’s efficac y against the NC I-60 cancer cell li nes including: six leukemia cell lines, nine non- small cell lung cancer cell lines, seven color ect al cancer cell lines, six CNS cancer cell lines, nine melanoma cell lines, seven ovari an can cer cell lines, seven ren al can cer cell lines, two prostate cancer cell lines and six breast cancer cell lines. The scr eenin g was car r ied out b y the US National Cancer Institute (NC I) us i n g a sulforhodamine B (SRB) colorimetric assay. […]
(§3) out by the NC I using five different doses of CTR -20.

HOP-62 = tested on: HOP-62
Source text: as §1, §2, §3

CCRF-CEM = tested on: CCRF-CEM
Source text: as §1, §2, §3

RXF 393 = tested on: RXF 393
Source text: as §1, §2, §3

MDA-MB-435 = tested on: MDA-MB-435
Source text: as §1, §2, §3

K-562 = tested on: K-562
Source text: as §1, §2, §3

HCC-2998 = tested on: HCC-2998
Source text: as §1, §2, §3

UACC-257 = tested on: UACC-257
Source text: as §1, §2, §3

HT29 = tested on: HT29
Source text: as §1, §2, §3

SK-MEL-5 = tested on: SK-MEL-5
Source text: as §1, §2, §3

A498 = tested on: A498
Source text: as §1, §2, §3

LOX IMVI = tested on: LOX IMVI
Source text: as §1, §2, §3

[1] = Homo sapiens, read-out: LC50 (the source's name)

COc1ccc2[nH]c(=O)c(/C=C/C(=O)c3ccccc3OC)cc2c1 [CTR-20, (E)-6-Methoxy-3-(3-(2-methoxyphenyl)-3-oxoprop-1-enyl) quinolin-2(1H)-one]
Log10GI50 (SR): -7.18 Molar
Log10LC50 (SR): > -4.00 Molar
Log10TGI (SR): -4.99 Molar
TGI (SR): 1.03E-5 Molar
Growth Percent (SR; 1.00E-5 Molar): 2.69%
GI50 (SR; Homo sapiens): 65.6 nM
LC50 (50% lethal concentration) (SR; Homo sapiens): > 100 µM
Percent Growth (SR; Log10 Concentration -4.0): -13%
Percent Growth (SR; Log10 Concentration -6.0): 21%
Percent Growth (SR; Log10 Concentration -7.0): 41%
Percent Growth (SR; Log10 Concentration -8.0): 92%
Log10GI50 (HOP-62): -5.91 Molar
Log10LC50 (HOP-62): -4.63 Molar
Log10TGI (HOP-62): -5.27 Molar
TGI (HOP-62): 5.32E-6 Molar
Growth Percent (HOP-62; 1.00E-5 Molar): 8.67%
GI50 (HOP-62; Homo sapiens): 1240 nM
LC50 (HOP-62; Homo sapiens): 23.7 µM
Percent Growth (HOP-62; Log10 Concentration -4.0): -97%
Percent Growth (HOP-62; Log10 Concentration -5.0): -22%
Percent Growth (HOP-62; Log10 Concentration -6.0): 58%
Percent Growth (HOP-62; Log10 Concentration -7.0): 95%
Percent Growth (HOP-62; Log10 Concentration -8.0): 89%
Log10GI50 (CCRF-CEM): -6.41 Molar
Log10LC50 (CCRF-CEM): > -4.00 Molar
Log10TGI (CCRF-CEM): > -4.00 Molar
TGI (CCRF-CEM): > 1.00E-4 Molar
Growth Percent (CCRF-CEM; 1.00E-5 Molar): 7.53%
GI50 (CCRF-CEM; Homo sapiens): 392 nM
LC50 (concentration causing 50% net cell kill) (CCRF-CEM; Homo sapiens): > 100 µM
Percent Growth (CCRF-CEM; Log10 Concentration -4.0): 1%
Percent Growth (CCRF-CEM; Log10 Concentration -5.0): 6%
Percent Growth (CCRF-CEM; Log10 Concentration -6.0): 19%
Percent Growth (CCRF-CEM; Log10 Concentration -7.0): 95%
Percent Growth (CCRF-CEM; Log10 Concentration -8.0): 99%
Log10GI50 (RXF 393): -5.99 Molar
Log10LC50 (RXF 393): -5.19 Molar
Log10TGI (RXF 393): -5.59 Molar
TGI (RXF 393): 2.57E-6 Molar
Growth Percent (RXF 393; 1.00E-5 Molar): -7.90%
GI50 (RXF 393; Homo sapiens): 1020 nM
CC50 (RXF 393; [1]): 6.48 µM
Percent Growth (RXF 393; Log10 Concentration -4.0): -98%
Percent Growth (RXF 393; Log10 Concentration -5.0): -74%
Percent Growth (RXF 393; Log10 Concentration -6.0): 51%
Percent Growth (RXF 393; Log10 Concentration -7.0): 99%
Percent Growth (RXF 393; Log10 Concentration -8.0): 99%
Log10GI50 (MDA-MB-435): -7.25 Molar
Log10LC50 (MDA-MB-435): -4.66 Molar
Log10TGI (MDA-MB-435): -6.56 Molar
TGI (MDA-MB-435): 2.75E-7 Molar
Growth Percent (MDA-MB-435; 1.00E-5 Molar): -10.05%
GI50 (MDA-MB-435; Homo sapiens): 56.4 nM
CC50 (MDA-MB-435; [1]): 21.9 µM
Percent Growth (MDA-MB-435; Log10 Concentration -4.0): -97%
Percent Growth (MDA-MB-435; Log10 Concentration -5.0): -26%
Percent Growth (MDA-MB-435; Log10 Concentration -6.0): -46%
Percent Growth (MDA-MB-435; Log10 Concentration -7.0): 36%
Percent Growth (MDA-MB-435; Log10 Concentration -8.0): 92%
Log10GI50 (K-562): -6.79 Molar
Log10LC50 (K-562): > -4.00 Molar
Log10TGI (K-562): > -4.00 Molar
TGI (K-562): > 1.00E-4 Molar
Growth Percent (K-562; 1.00E-5 Molar): 4.24%
GI50 (K-562; Homo sapiens, K562): 162 nM
CC50 (K-562; Homo sapiens, K562, read-out: LC50 (the source's name)): > 100 µM
Percent Growth (K-562; Log10 Concentration -4.0): 4%
Percent Growth (K-562; Log10 Concentration -5.0): 6%
Percent Growth (K-562; Log10 Concentration -6.0): 11%
Percent Growth (K-562; Log10 Concentration -7.0): 61%
Percent Growth (K-562; Log10 Concentration -8.0): 101%
Log10GI50 (HCC-2998): -5.80 Molar
Log10LC50 (HCC-2998): -5.23 Molar
Log10TGI (HCC-2998): -5.52 Molar
TGI (HCC-2998): 3.03E-6 Molar
Growth Percent (HCC-2998; 1.00E-5 Molar): 23.11%
GI50 (HCC-2998; Homo sapiens): 1570 nM
CC50 (HCC-2998; [1]): 5.85 µM
Percent Growth (HCC-2998; Log10 Concentration -4.0): -91%
Percent Growth (HCC-2998; Log10 Concentration -5.0): -91%
Percent Growth (HCC-2998; Log10 Concentration -6.0): 84%
Percent Growth (HCC-2998; Log10 Concentration -7.0): 97%
Percent Growth (HCC-2998; Log10 Concentration -8.0): 99%
Log10GI50 (UACC-257): -5.86 Molar
Log10LC50 (UACC-257): -5.17 Molar
Log10TGI (UACC-257): -5.52 Molar
TGI (UACC-257): 3.05E-6 Molar
Growth Percent (UACC-257; 1.00E-5 Molar): 37.62%
GI50 (UACC-257; Homo sapiens): 1380 nM
CC50 (UACC-257; [1]): 6.75 µM
Percent Growth (UACC-257; Log10 Concentration -4.0): -100%
Percent Growth (UACC-257; Log10 Concentration -5.0): -75%
Percent Growth (UACC-257; Log10 Concentration -6.0): 70%
Percent Growth (UACC-257; Log10 Concentration -7.0): 101%
Percent Growth (UACC-257; Log10 Concentration -8.0): 98%
Log10GI50 (HT29): -6.53 Molar
Log10LC50 (HT29): -4.63 Molar
Log10TGI (HT29): -5.86 Molar
TGI (HT29): 1.37E-6 Molar
Growth Percent (HT29; 1.00E-5 Molar): 7.17%
GI50 (HT29; Homo sapiens, HT-29): 293 nM
LC50 (HT29; Homo sapiens, HT-29): 23.7 µM
Percent Growth (HT29; Log10 Concentration -4.0): -73%
Percent Growth (HT29; Log10 Concentration -5.0): -36%
Percent Growth (HT29; Log10 Concentration -6.0): 6%
Percent Growth (HT29; Log10 Concentration -7.0): 89%
Percent Growth (HT29; Log10 Concentration -8.0): 98%
Log10GI50 (SK-MEL-5): -6.14 Molar
Log10LC50 (SK-MEL-5): -5.31 Molar
Log10TGI (SK-MEL-5): -5.68 Molar
TGI (SK-MEL-5): 2.08E-6 Molar
Growth Percent (SK-MEL-5; 1.00E-5 Molar): 25.21%
GI50 (SK-MEL-5; Homo sapiens): 728 nM
CC50 (SK-MEL-5; [1]): 4.93 µM
Percent Growth (SK-MEL-5; Log10 Concentration -4.0): -98%
Percent Growth (SK-MEL-5; Log10 Concentration -5.0): -91%
Percent Growth (SK-MEL-5; Log10 Concentration -6.0): 43%
Percent Growth (SK-MEL-5; Log10 Concentration -7.0): 96%
Percent Growth (SK-MEL-5; Log10 Concentration -8.0): 101%
Log10GI50 (A498): -6.18 Molar
Log10LC50 (A498): -4.63 Molar
Log10TGI (A498): -5.34 Molar
TGI (A498): 4.55E-6 Molar
Growth Percent (A498; 1.00E-5 Molar): 21.71%
GI50 (A498; Homo sapiens): 656 nM
CC50 (A498; [1]): 23.6 µM
Percent Growth (A498; Log10 Concentration -4.0): -100%
Percent Growth (A498; Log10 Concentration -5.0): -20%
Percent Growth (A498; Log10 Concentration -6.0): 39%
Percent Growth (A498; Log10 Concentration -7.0): 99%
Percent Growth (A498; Log10 Concentration -8.0): 97%
Log10GI50 (LOX IMVI): -6.42 Molar
Log10LC50 (LOX IMVI): -5.33 Molar
Log10TGI (LOX IMVI): -5.79 Molar
TGI (LOX IMVI): 1.61E-6 Molar
Growth Percent (LOX IMVI; 1.00E-5 Molar): 10.23%
GI50 (LOX IMVI; Homo sapiens): 379 nM
LC50 (LOX IMVI; Homo sapiens): 4.71 µM
Percent Growth (LOX IMVI; Log10 Concentration -4.0): -95%
Percent Growth (LOX IMVI; Log10 Concentration -5.0): -85%
Percent Growth (LOX IMVI; Log10 Concentration -6.0): 22%
Percent Growth (LOX IMVI; Log10 Concentration -7.0): 88%
Percent Growth (LOX IMVI; Log10 Concentration -8.0): 96%
